From patent publication US20040014212A1, “Preparation and xenotransplantation or porcine islets” (priority 2000, published 2004)

Tests used:
porcine islets [1] = assay: Static glucose stimulation (SGS): insulin secretion of cultured porcine islets; format: cell-based
Description: Static glucose stimulation (SGS) is used to assess in vitro function of the porcine islets by exposing them to low and high concentrations of glucose and theophylline. Determination of the in vitro insulin secretory capacity is undertaken on both free islets (after 3 days in culture) and after their subsequent encapsulation or confinement.
Keep the cells 3 days in culture before Static Glucose Stimulation (SGS). SGS involves exposure of the cells to low and high concentration of glucose to check insulin production. Using 0.1 ug/ml concentration add IGF1 and GPE to two plates 24 hours before SGS (day 2 after isolation)

porcine islets [2] = assay: as above; format: cell-based; conditions: for effect of exposure beyond 24 hrs on insulin production in response to glucose: post isolation
[3] = Incubated 24 hrs with 1.0 ug/ml IgF-1

In the case of IgF-2: insulin-like growth factor II, the “effect on insulin production of porcine islet cells” value (porcine islets [1]; 0.1 μg/ml during culturing, initial exposure of 24 hrs) is reported as “appeared to increase”, the “persistence of increased insulin production post exposure” value (porcine islets [2]) is reported as no more than 3 days and the “Insulin secretion In response to 19.4 mM Glucose + 10 mM Theophyline After 3 days culture Post isolation” value (porcine islets [2]; Incubated 24 hrs With 0.1 ug/ml IgF-2 day 1, second sub-table) is reported as 32 uU/hr/100 IEQ. The “Insulin secretion In response to 19.4 mM Glucose + 10 mM Theophyline After 3 days culture Post isolation” value (porcine islets [2]; Incubated 7 days with 0.1 ug/ml IgF-2) was 38.4 uU/hr/100 IEQ and the “effect of exposure beyond 24 hrs on insulin production in response to glucose” value (porcine islets [2]) was “failed to increase”.

With `CCN(CC)CC(=O)Nc1c(C)cccc1C` [Lidocaine, reference compound] the “increase in insulin secretion in response to glucose challenge” value (porcine islets [2]; Lidocaine during digestion, after 3 days in culture) was 3 fold and the “Insulin secretion in response to 19.4 mM Glucose + 10 mM Theophyline After 3 days culture Post isolation” value (porcine islets [2]; islets from Collagenase digestion, with or without 1 mM Lidocaine) was 163.8 uU/hr/100 IEQ.

With “IgF-1: Human Insulin-like Growth Factor I, a potent mitogenic growth factor” the “effect of withdrawal of Nicotinamide from the culture media on islet insulin production” value (porcine islets [1]) was “eliminated the benefit of IgF-1”, the “concentration in culture sufficient to produce optimal insulin secretion during glucose challenge” value (porcine islets [1]; IgF-1 in culture) was 0.1 µg/mL and the “Insulin secretion In response to 19.4 mM Glucose + 10 mM Theophyline 7 days post isolation” value (porcine islets [1]; [3]) was 57.5 uU/hr/100 IEQ. The “Insulin secretion In response to 19.4 mM Glucose + 10 mM Theophyline After 3 days” value (porcine islets [1]; [3]) was 56.8 uU/hr/100 IEQ, the “Insulin secretion In response to 19.4 mM Glucose + 10 mM Theophyline After 3 days culture Post isolation” value (porcine islets [1]; Incubated 3 days With 0.1 ug/ml IgF-1 Without Nicotinamide) was 47.6 uU/hr/100 IEQ and the “increase of insulin response to glucose” value (porcine islets [1]; porcine islets in culture exposed to IgF-1) was no more than 3 fold. The “persistence of increased insulin production post exposure” value (porcine islets [2]) was no less than 14 days, the “Insulin secretion In response to 19.4 mM Glucose + 10 mM Theophyline, increase Compared to control” value (porcine islets [2]; 3 days post IgF-1 Exposure) was 1.5-fold increase and the “Insulin secretion In response to 19.4 mM Glucose + 10 mM Theophyline, increase Compared to control” value (porcine islets [2]; 14 days post IgF-1 Exposure) was 1.3-fold increase. The “Insulin secretion In response to 19.4 mM Glucose + 10 mM Theophyline 7 days post isolation” value (porcine islets [2]; Incubated 7 days with 0.1 ug/ml IgF-1) was 58 uU/hr/100 IEQ, the “effect of increasing the concentration in culture on insulin response” value (porcine islets [2]; above the sufficient concentration) was “No further benefit” and the “effect of exposure beyond 24 hrs on insulin production in response to glucose” value (porcine islets [2]) was “no increased benefit”.
